Laboratory results as given in patent US11458141B2, “Aryl hydrocarbon receptor (AhR) agonists for the prevention and treatment of inflammatory disorders” (The Johns Hopkins University, priority 2017, dated 2022).

What was measured:
[1] = tested on: aryl hydrocarbon receptor (AHR) signaling; experiment: Cypla1 mRNA (AHR signaling) in ileum of mice with experimental NEC, qPCR; type: in vivo, mouse; settings: 4 days, vs vehicle
Experimental: (§1) Necrotizing enterocolitis (NEC) was induced in 7-day-old mouse pups by gavage feeding and hypoxia exposure for 4 days in presence of abacavir, lansoprazole, tranilast and raberprazole. The ileum was harvested at the end of the experiment and the mRNA expression of target genes was analyzed by qPCR.
Referring now to FIG. 1, the mRNA expression of Cypla1, the down-stream gene of aryl hydrocarbon receptor (AHR) signaling, was quantified in the ileum of experimental NEC models. Data are represented as mean±SEM; *p<0.05 between indicated groups; each dot represents an individual mouse.

mice with NEC = experiment: mRNA of proinflammatory cytokines and NEC markers in ileum of mice with experimental NEC, qPCR; type: in vivo, mouse; settings: vs vehicle-treated group
Experimental: as §1
Referring now to FIG. 2, the mRNA expression of pro-inflammatory cytokine tumor necrosis factor alpha (Tnf) was quantified in the ileum of experimental NEC models. Data are represented as mean±SEM; *p<0.05 between indicated groups; each dot represents an individual mouse.
Referring now to FIG. 3, the mRNA expression of pro-inflammatory Interleukin-6 (IL-6) was quantified in the ileum of experimental NEC models. Data are represented as mean±SEM; *p<0.05 between indicated groups; each dot represents an individual mouse.
Referring now to FIG. 4, the mRNA expression of NEC marker S100 calcium binding protein A8 (S100a8) was quantified in the ileum of experimental NEC models. Data are represented as mean±SEM; *p<0.05 between indicated groups; each dot represents an individual mouse.
Referring now to FIG. 5, the mRNA expression of NEC marker lipocalin 2 (Lcn2) was quantified in the ileum of experimental NEC models. Data are represented as mean±SEM; *p<0.05 between indicated groups; each dot represents an individual mouse.
Referring now to FIG. 6, the mRNA expression of NEC marker intestinal fatty acid-binding protein (iFabp) was quantified in the ileum of experimental NEC models. Data are represented as mean±SEM; *p<0.05 between indicated groups; each dot represents an individual mouse.

Structure (SMILES) | mRNA expression of Cypla1, the down-stream gene of AHR signaling [1] | mRNA expression of Interleukin-6 (IL-6) (mice with NEC) | mRNA expression of NEC marker S100a8 (mice with NEC) | mRNA expression of NEC marker lipocalin 2 (Lcn2) (mice with NEC) | mRNA expression of tumor necrosis factor alpha (Tnf) (mice with NEC) | mRNA expression of NEC marker iFabp (mice with NEC)
Nc1nc(NC2CC2)c2ncn([C@H]3C=C[C@@H](CO)C3)c2n1 [abacavir] | activated AHR signaling pathway | significantly attenuated IL-6 expression | significantly attenuated S100a8 expression | significantly attenuated Lcn2 expression | significantly attenuated Tnf expression | 
Cc1c(OCC(F)(F)F)ccnc1C[S+]([O-])c1nc2ccccc2[nH]1 (centres unmarked) [lansoprazole] | activated AHR signaling pathway | significantly attenuated IL-6 expression | significantly attenuated S100a8 expression | significantly attenuated Lcn2 expression | significantly attenuated Tnf expression | significantly attenuated iFabp expression
COCCCOc1ccnc(C[S+]([O-])c2nc3ccccc3[nH]2)c1C (centres unmarked) [raberprazole] | nor raberprazole, activated AHR signaling pathway |  | significantly attenuated S100a8 expression |  |  | significantly attenuated iFabp expression
